Measured values taken from ChEMBL document CHEMBL4308823, “Small Molecule Mitochondrial Uncouplers and Their Therapeutic Potential” (J Med Chem, 2018).

Experiments:
[1] = system: Mus musculus; assay: Antiobesity activity in high fat diet-induced obese C57BL/6 mouse assessed as reduction in fat mass at 50 umol/kg/day for 16 days relative to control; format: functional; set-up: scale not given: the % may be the effect or the level left
[2] = system: Mus musculus; assay: Antiobesity activity in high fat diet-induced obese C57BL/6 mouse assessed as reduction in body weight at 50 umol/kg/day for 16 days relative to control; format: functional; set-up: scale not given: the % may be the effect or the level left
[3] = Toxicity in rat; conditions: in vivo
[4] = Dissociation constant, pKa of compound
[5] = Mitochondrial uncoupling activity in Arabidopsis root cells assessed as inhibition of clathrin-mediated endocytosis by measuring reduction of FM4-64 uptake; format: functional, mitochondria, Arabidopsis thaliana, Mitochondria
[6] = system: Mus musculus; assay: Anorectic activity in C57Bl/6J mouse assessed as reduction in fat mass at 30 umol/kg for 6 consecutive days relative to control; format: functional; set-up: scale not given: the % may be the effect or the level left
[7] = system: Mus musculus; assay: Anorectic activity in C57Bl/6J mouse assessed as reduction in body weight at 30 umol/kg for 6 consecutive days relative to control; format: functional; set-up: scale not given: the % may be the effect or the level left
[8] = Uncoupling activity in rat mitochondria assessed as increase in oxygen consumption by mitochondrial respiration assay; format: functional
[9] = system: Mus musculus; assay: Antiobesity activity in high fat diet-induced obese C57BL/6J mouse assessed as reduction in body fat mass at 5 mg/kg, po administered via gavage treated 3 times per week for 6 weeks relative to control; format: functional; set-up: scale not given: the % may be the effect or the level left
[10] = system: HL-60; assay: Cytotoxicity against human HL60 cells after 24 to 48 hrs by MTT assay; format: cell-based
[11] = system: Mus musculus; assay: Antiobesity activity in high fat diet-induced obese C57BL/6J mouse assessed as reduction in body weight at 5 mg/kg, po administered via gavage treated 3 times per week for 6 weeks relative to control; format: functional; set-up: scale not given: the % may be the effect or the level left
[12] = Acute toxicity in C57BL/6J mouse administered via oral gavage; conditions: in vivo
[13] = system: C2C12; assay: Cytotoxicity against mouse C2C12 cells after overnight incubation; format: cell-based
[14] = Toxicity in po dosed rat; format: organism-based; conditions: in vivo
[15] = system: Liver; assay: Mitochondrial uncoupling activity in mouse liver mitochondria assessed as effect on succinoxldase coupled phosphorylation; format: functional
[16] = in vivo; conditions: mouse
[17] = Toxicity in dog; set-up: species or system Canis lupus familiaris; conditions: in vivo
[18] = Toxicity in human assessed as weight loss
[19] = system: 143B; assay: Cytotoxicity against human 143B cells after 24 hrs by LDH release assay; format: cell-based
[20] = system: Hepatocyte; assay: Cytotoxicity against Sprague-Dawley rat hepatocytes after 24 hrs by MTT assay; format: cell-based
[21] = system: HCT-116; assay: Cytotoxicity against human HCT116 cells after 48 hrs by MTT assay; format: cell-based; conditions: HCT-116, 48 h
[22] = Acute toxicity in po dosed mouse; format: organism-based; conditions: in vivo

With `CCCCCCCCCCCC[P+](c1ccccc1)(c1ccccc1)c1ccccc1` the Activity [1] was 24% and the Activity [2] was 12%.

In the case of `NCCO.O=C(Nc1ccc([N+](=O)[O-])cc1Cl)c1cc(Cl)ccc1O`, the LD50 [3] is reported as 500 mg/kg.

`CC(C)(C)c1cc(Cl)cc(C(=O)Nc2ccc([N+](=O)[O-])cc2Cl)c1O` showed a pKa [4] of 5.8.

Compound `O=[N+]([O-])c1ccc(NS(=O)(=O)c2ccc(Br)s2)cc1` has an IC50 [5] of 5000 nM.

In the case of `CCCCOC(=O)c1ccccc1-c1c2cc(C)/c(=N\CC)cc-2oc2cc(NCC)c(C)cc12`, the Activity [6] is reported as 20%, the pKa [4] is reported as 7.3 and the Activity [7] is reported as 19%. It also gave an EC50 [8] of 1000 nM.

For `O=C(Nc1cc(Cl)cc(Cl)c1)Nc1cc(Cl)cc(Cl)c1`, the Activity [9] was 35%, the Activity [10] was greater than 25 µM and the Activity [11] was 16%.

With `CCOC(=O)C1=C(C)N=c2s/c(=C/c3cc(Br)c(O)c(Br)c3)c(=O)n2C1c1ccc(Cl)cc1` (configuration not stated) the LD50 [12] was 12.7 mg/kg.

`O=[N+]([O-])c1ccc(OCc2ccc(OCCCC[P+](c3ccccc3)(c3ccccc3)c3ccccc3)cc2[N+](=O)[O-])c([N+](=O)[O-])c1` showed an Activity [13] greater than 5 µM.

In the case of `FC(F)(F)c1nc2c(Cl)c(Cl)c(Cl)c(Cl)c2[nH]1`, the LD50 [14] is reported as 1.6 mg/kg and the pKa [4] is reported as 5.04 to 5.6.

Work on `O=[N+]([O-])c1cc(CCC[P+](c2ccccc2)(c2ccccc2)c2ccccc2)cc([N+](=O)[O-])c1O` yielded a pKa [4] of 4.48.

`N#CC(C#N)=NNc1ccc(OC(F)(F)F)cc1` gave an EC50 [15] of 40 nM, a pKa [4] of 6.2 and an LD50 [16] of 8 mg/kg.

For `O=[N+]([O-])c1ccc(O)c([N+](=O)[O-])c1` [2,4-DINITROPHENOL], the LD50 [14] was 30 mg/kg, the LD50 [17] was 30 mg/kg and the LD [18] was 0.8 to 3 g. For the same compound, the pKa [4] was 4.1.

Compound `CCCCN1CCCCC1C(=O)Nc1c(C)cccc1C` (configuration not stated) [BUPIVACAINE] has an LD50 [3] of 4.25 to 12.7 mg/kg and a pKa [4] of 8.1.

`N#CC(C#N)=NNc1cccc(Cl)c1` [CARBONYL CYANIDE M-CHLOROPHENYLHYDRAZONE] gave an EC50 [15] of 100 nM.

In the case of `COC1=C(OC)C(=O)C(CCCCCCCCCC[P+](c2ccccc2)(c2ccccc2)c2ccccc2)=C(C)C1=O` [MITOQUINONE CATION], the Activity [19] is reported as greater than 10 µM.

With `CC(C)(C)c1cc(C=C(C#N)C#N)cc(C(C)(C)C)c1O` [TYRPHOSTIN A9] the IC50 [20] was greater than 970 nM, the IC50 [21] was greater than 200 nM and the pKa [4] was 6.7. It also gave an LD50 [22] of 29 mg/kg.
